Test results taken from patent US11325916B1, “Spiropyrrolidine derived antiviral agents” (priority 2021, dated 2022).
Like-named read-outs stand apart in the source and are kept apart here.

Experiments:
[1] = tested on: 229E human corona virus (hCoV); test: 229E Live Virus Assay (MRC-5 cells, CPE, ATPlite readout); type: cell-based, hCoV-229E; details: Human coronavirus 229E, MRC5, 144 h, read-out: 229E EC50
SARS-CoV-2 3CL-protease = SARS-CoV-2 3CL-protease (Severe acute respiratory syndrome coronavirus 2 (2019-nCoV) (SARS-CoV-2), UniProt P0DTD1); test: SARS-CoV-2 3C-Like (3CL) Protease Fluorescence Assay (FRET); type: biochemical
[2] = MRC-5 cells, hCoV-229E MOI 0.05, 6 days at 34° C., ATPlite, duplicate, ranges defined in μM

SMILES	EC50 [1, 2]	IC50 (SARS-CoV-2 3CL-protease)	EC50 [1]
CC(C)C[C@@H](C(=O)N1C[C@]2(C[C@H]1C#N)C(=O)Nc1ccccc12)N(C)C(=O)[C@H](Cc1ccc(F)cc1)NC(=O)C(F)(F)F [Example 2]	< 0.1 µM	< 0.1 µM	–
CC(C)C[C@@H](C(=O)N1C[C@]2(C[C@H]1C#N)C(=O)Nc1ccccc12)N(C)C(=O)[C@H](CC1CC1)NC(=O)c1ccc(F)cc1 [Example 17]	–	< 0.1 µM	< 0.1 µM
CC(C)[C@H](NC(=O)c1ccc2c(F)cc(F)cc2n1)C(=O)N(C)[C@@H](CC(C)(C)C)C(=O)N1C[C@]2(C[C@H]1C#N)C(=O)Nc1ccccc12 [Example 109]	–	< 0.1 µM	0.1 to 1 µM
CC(C)(C)C[C@H](NC(=O)[C@H](CC1CC1)NC(=O)OCc1ccccc1)C(=O)N1C[C@]2(C[C@H]1C#N)C(=O)Nc1ccccc12 [Example 94]	–	< 0.1 µM	< 0.1 µM
CC(C)C[C@@H](C(=O)N1C[C@]2(C[C@H]1C#N)C(=O)Nc1ccccc12)N(C)C(=O)[C@@H](NC(=O)OCc1ccccc1)C1CCCCC1 [Example 20]	–	< 0.1 µM	< 0.1 µM
CC(C)[C@@H](NC(=O)C(F)(F)F)C(=O)N[C@@H](CC(C)(C)C)C(=O)N1C[C@]2(C[C@H]1C#N)C(=O)Nc1ccccc12 [Example 91]	–	0.1 to 1 µM	0.1 to 1 µM
CC(C)[C@@H](NC(=O)c1cc2c(F)cc(F)c(F)c2[nH]1)C(=O)N[C@@H](CC(C)(C)C)C(=O)N1C[C@]2(C[C@H]1C#N)C(=O)Nc1ccccc12 [Example 93]	–	> 1 µM	> 1 µM
COC(=O)N[C@@H](CC1CC1)C(=O)N(C)[C@@H](CC(C)C)C(=O)N1C[C@]2(C[C@H]1C#N)C(=O)Nc1ccccc12 [Example 16]	–	< 0.1 µM	< 0.1 µM
CN(C(=O)[C@H](Cc1ccc(F)cc1)n1cc(-c2ccccc2)nn1)[C@@H](CC(C)(C)C)C(=O)N1C[C@]2(C[C@H]1C#N)C(=O)Nc1ccccc12 [Example 54]	–	< 0.1 µM	< 0.1 µM
CC(C)[C@H](NC(=O)OCC1(c2ccccc2)CC1)C(=O)N(C)[C@@H](CC(C)(C)C)C(=O)N1C[C@]2(C[C@H]1C#N)C(=O)Nc1ccccc12 [Example 110]	–	< 0.1 µM	0.1 to 1 µM
CC(C)C[C@@H](C(=O)N1C[C@]2(C[C@H]1C#N)C(=O)Nc1ccccc12)N(C)C(=O)[C@H](CC1CCC1)NC(=O)c1cc2c(F)cc(F)c(F)c2[nH]1 [Example 45]	–	< 0.1 µM	0.1 to 1 µM
CC(=O)N[C@@H](CC1CC1)C(=O)N(C)[C@@H](CC(C)(C)C)C(=O)N1C[C@]2(C[C@H]1C#N)C(=O)Nc1ccccc12 [Example 78]	–	< 0.1 µM	< 0.1 µM
CN(C(=O)[C@H](CC1CC1)NC(=O)N1CCOCC1)[C@@H](CC(C)(C)C)C(=O)N1C[C@]2(C[C@H]1C#N)C(=O)Nc1ccccc12 [Example 83]	–	< 0.1 µM	< 0.1 µM
CC(C)[C@H](NC(=O)C(F)(F)F)C(=O)N[C@@H](CC(C)(C)C)C(=O)N1C[C@]2(C[C@H]1C#N)C(=O)Nc1ccccc12 [Example 90]	–	< 0.1 µM	0.1 to 1 µM
CN(C(=O)[C@H](Cc1ccc(F)cc1)NC(=O)C1CCC1)[C@@H](CC(C)(C)C)C(=O)N1C[C@]2(C[C@H]1C#N)C(=O)Nc1ccccc12 [Example 64]	–	< 0.1 µM	< 0.1 µM
CC(C)[C@H](NC(=O)N1CCCCC1)C(=O)N(C)[C@@H](CC(C)(C)C)C(=O)N1C[C@]2(C[C@H]1C#N)C(=O)Nc1ccccc12 [Example 112]	–	< 0.1 µM	0.1 to 1 µM
CC(C)[C@@H](NC(=O)C(F)(F)F)C(=O)N(C)[C@@H](Cc1ccccc1)C(=O)N1C[C@]2(C[C@H]1C#N)C(=O)Nc1ccccc12 [Example 51]	0.1 to 1 µM	< 0.1 µM	–

SMILES	EC50 [1, 2]	IC50 (SARS-CoV-2 3CL-protease)	EC50 [1]
CC(C)C[C@@H](C(=O)N1C[C@]2(C[C@H]1C#N)C(=O)Nc1ccccc12)N(C)C(=O)[C@H](CC(C)(C)C)NC(=O)OCc1ccccc1 [Example 25]	–	< 0.1 µM	< 0.1 µM
CC(C)C[C@@H](C(=O)N1C[C@]2(C[C@H]1C#N)C(=O)Nc1ccccc12)N(C)C(=O)[C@H](CC(C)(C)C)NC(=O)C(C)(C)C [Example 43]	–	< 0.1 µM	< 0.1 µM
CC(=O)N[C@@H](CC1CC1)C(=O)N(C)[C@@H](CC(C)C)C(=O)N1C[C@]2(C[C@H]1C#N)C(=O)Nc1ccccc12 [Example 41]	–	< 0.1 µM	< 0.1 µM
CC(C)(C)C(NCc1cc(F)c(F)cc1F)C(=O)N1CCC[C@H]1C(=O)N1C[C@]2(C[C@H]1C#N)C(=O)Nc1ccccc12 (some centres unmarked) [Example 61]	–	> 1 µM	> 1 µM
CC(C)C[C@@H](C(=O)N1C[C@]2(C[C@H]1C#N)C(=O)Nc1ccccc12)N(C)C(=O)C(NC(=O)OCc1ccccc1)c1ccccc1 (some centres unmarked) [Example 22]	–	< 0.1 µM	< 0.1 µM
CC(C)C[C@@H](C(=O)N1C[C@]2(C[C@H]1C#N)C(=O)Nc1ccccc12)N(C)C(=O)[C@H](CC1CCC1)NC(=O)C(F)(F)F [Example 27]	–	< 0.1 µM	< 0.1 µM
[2H]C([2H])([2H])N(C(=O)[C@H](CC1CC1)NC(=O)C(F)(F)F)[C@@H](Cc1ccc(F)cc1)C(=O)N1C[C@]2(C[C@H]1C#N)C(=O)Nc1ccccc12 [Example 74]	–	< 0.1 µM	< 0.1 µM
COc1cc(C(=O)N[C@@H](CC2CC2)C(=O)N(C)[C@@H](CC(C)(C)C)C(=O)N2C[C@]3(C[C@H]2C#N)C(=O)Nc2ccccc23)cc2cn(C3CC3)nc12 [Example 123]	–	< 0.1 µM	0.1 to 1 µM
CN(C(=O)[C@H](Cc1ccc(F)cc1)n1cc(C2CC2)nn1)[C@@H](CC(C)(C)C)C(=O)N1C[C@]2(C[C@H]1C#N)C(=O)Nc1ccccc12 [Example 9]	< 0.1 µM	< 0.1 µM	–
COC(=O)N[C@@H](Cc1ccc(F)cc1)C(=O)N(C)[C@@H](CC(C)C)C(=O)N1C[C@]2(C[C@H]1C#N)C(=O)Nc1ccccc12 [Example 3]	–	< 0.1 µM	< 0.1 µM
CN(C(=O)[C@H](CC1CC1)NC(=O)C1COC1)[C@@H](CC(C)(C)C)C(=O)N1C[C@]2(C[C@H]1C#N)C(=O)Nc1ccccc12 [Example 122]	–	< 0.1 µM	< 0.1 µM
CC(C)C[C@@H](C(=O)N1C[C@]2(C[C@H]1C#N)C(=O)Nc1ccccc12)N(C)C(=O)[C@@H](NC(=O)OCc1ccccc1)C(C)(C)C [Example 11]	–	< 0.1 µM	0.1 to 1 µM
CC(C)C[C@@H](C(=O)N1C[C@]2(C[C@H]1C#N)C(=O)Nc1ccccc12)N(C)C(=O)[C@@H](NC(=O)C(F)(F)F)C(C)(C)C [Example 12]	–	< 0.1 µM	0.1 to 1 µM
CC(C)[C@H](NC(=O)c1cc2c(F)cc(F)c(F)c2[nH]1)C(=O)N[C@@H](CC(C)(C)C)C(=O)N1C[C@]2(C[C@H]1C#N)C(=O)Nc1ccccc12 [Example 92]	–	< 0.1 µM	0.1 to 1 µM
[2H]C([2H])([2H])N(C(=O)[C@H](CC1CC1)NC(=O)C1COC1)[C@@H](Cc1ccc(F)cc1)C(=O)N1C[C@]2(C[C@H]1C#N)C(=O)Nc1ccccc12 [Example 77]	–	< 0.1 µM	0.1 to 1 µM
CN(C(=O)[C@H](CC1CC1)NS(=O)(=O)C1CC1)[C@@H](CC(C)(C)C)C(=O)N1C[C@]2(C[C@H]1C#N)C(=O)Nc1ccccc12 [Example 82]	–	< 0.1 µM	< 0.1 µM
CC(C)[C@H](NC(=O)OCc1ccccc1)C(=O)N[C@@H](CC(C)(C)C)C(=O)N1C[C@]2(C[C@H]1C#N)C(=O)Nc1ccccc12 [Example 86]	–	< 0.1 µM	0.1 to 1 µM
